Literature values, collected in patent US5612056A, “Transdermal formulations” (priority 1991, dated 1997).

Legend:
[1] = guinea pig, in vivo
blood cholinesterase = conditions: human, in vivo, iv

## CNC(=O)Oc1ccc2c(c1)[C@]1(C)CCN(C)[C@@H]1N2C [physostigmine]
[1]
  plasma half life: 40 to 50 min
Blood cholinesterase
  blood cholinesterase inhibition: approximately 30%
